Reference: ChEMBL document CHEMBL3588786, “Synthesis and Biological evaluation of novel 4β-[(5-substituted)-1,2,3,4-tetrazolyl] podophyllotoxins as anticancer compounds” (Bioorg Med Chem Lett, 2015)
Active and inactive are the calls of the source. The calls are words filed in the database; no cut-off is given here.

Tests used:
[1] = tested on: A549; assay: Antimitotic activity against human A549 cells at 5 uM after 12 hrs by flow cytometry; type: functional, cell-based
[2] = tested on: A549; assay: Induction of cell cycle arrest in human A549 cells assessed as accumulation at S phase at 5 uM after 24 hrs by flow cytometry; type: functional
[3] = tested on: A549; assay: Induction of cell cycle arrest in human A549 cells assessed as accumulation at G0 phase at 5 uM after 24 hrs by flow cytometry; type: functional
[4] = tested on: MCF7; assay: Cytotoxicity against human MCF7 cells assessed as cell viability by SRB assay; type: functional, cell-based
[5] = tested on: HeLa; assay: Cytotoxicity against human HeLa cells assessed as cell viability by SRB assay; type: functional, cell-based
[6] = target: Tubulin (Bos taurus) (UniProt Q6B856+Q862F3); assay: Inhibition of bovine brain tubulin polymerization assessed as increase in fluorescence intensity at 5 uM relative to control
[7] = tested on: SK-N-SH; assay: Cytotoxicity against human SK-N-SH cells assessed as cell viability by SRB assay; type: functional, cell-based
[8] = tested on: A549; assay: Cytotoxicity against human A549 cells assessed as cell viability by SRB assay; type: functional, cell-based
[9] = tested on: A549; assay: Induction of cell cycle arrest in human A549 cells assessed as accumulation at G2/M phase at 5 uM after 24 hrs by flow cytometry; type: functional
[10] = tested on: A549; assay: Induction of cell cycle arrest in human A549 cells assessed as accumulation at G1 phase at 5 uM after 24 hrs by flow cytometry; type: functional

Compound | Activity [1] | Activity [2] | Activity [3] | IC50 [4] | IC50 [5] | inhibition [6] | IC50 [7] | IC50 [8] | Activity [9] | Activity [10]
COC(=O)c1nnnn1[C@@H]1c2cc3c(cc2[C@@H](c2cc(OC)c(OC)c(OC)c2)[C@H]2C(=O)OC[C@@H]21)OCO3 | Active | 4.61% | 19.92% | 6.97 µM | 5.25 µM | 12.4% | 6.5 µM | 3.11 µM | 45.43% | 30.01%
COc1cc([C@@H]2c3cc4c(cc3[C@@H](n3nnnc3C(=O)c3ccccc3)[C@H]3COC(=O)[C@H]23)OCO4)cc(OC)c1O | Active | 6.49% | 9.66% | 7.02 µM | 3.61 µM | 11.5% | 3.49 µM | 2.71 µM | 63.93% | 19.89%
COC(=O)Nc1nc2ccc(C(=O)c3cccs3)cc2n1C | – | – | – | – | – | 65.3% | – | – | – | –
COc1cc([C@@H]2c3cc4c(cc3[C@@H](n3nnnc3S(=O)(=O)c3ccc(C)cc3)[C@H]3COC(=O)[C@H]23)OCO4)cc(OC)c1OC | Active | 5.22% | 19.96% | 6.99 µM | 3.15 µM | 0.73% | 5.31 µM | 2.89 µM | 54.73% | 20.09%
COC(=O)c1nnnn1[C@@H]1c2cc3c(cc2[C@@H](c2cc(OC)c(O)c(OC)c2)[C@H]2C(=O)OC[C@@H]21)OCO3 | – | 6.38% | 9.96% | 5.27 µM | 3.95 µM | 28.3% | 5.64 µM | 2.44 µM | 68.48% | 15.18%
COc1cc([C@@H]2c3cc4c(cc3[C@@H](n3nnnc3C(=O)OCc3ccccc3)[C@H]3COC(=O)[C@H]23)OCO4)cc(OC)c1O | – | 8.25% | 8.61% | 9.44 µM | 4.77 µM | 29.8% | 6.16 µM | 2.98 µM | 63.19% | 19.95%
COc1cc([C@@H]2c3cc4c(cc3[C@H](O)[C@H]3COC(=O)[C@H]23)OCO4)cc(OC)c1OC [PODOFILOX] | – | 10.03% | 9.48% | 3.34 µM | 1.92 µM | 93.9% | 7.92 µM | 2.55 µM | 60.77% | 19.71%
COc1cc([C@@H]2c3cc4c(cc3[C@@H](n3nnnc3S(=O)(=O)c3ccc(C)cc3)[C@H]3COC(=O)[C@H]23)OCO4)cc(OC)c1O | – | 7.28% | 11% | 5.29 µM | 3.05 µM | 22.5% | 3.44 µM | 3.29 µM | 62.48% | 19.28%
COc1cc([C@@H]2c3cc4c(cc3[C@@H](n3nnnc3C(=O)OCc3ccccc3)[C@H]3COC(=O)[C@H]23)OCO4)cc(OC)c1OC | – | 6.61% | 10.28% | 4.85 µM | 4.01 µM | 57.5% | 4.58 µM | 2.48 µM | 65.34% | 17.77%
COc1cc([C@@H]2c3cc4c(cc3[C@@H](n3nnnc3C(=O)c3ccccc3)[C@H]3COC(=O)[C@H]23)OCO4)cc(OC)c1OC | – | 5.73% | 11.01% | 6.89 µM | 4.76 µM | 72.5% | 4.68 µM | 4.29 µM | 69.37% | 13.88%
CC(=O)O[C@H]1C(=O)[C@@]2(C)[C@H]([C@H](OC(=O)c3ccccc3)[C@]3(O)C[C@H](OC(=O)[C@H](O)[C@@H](NC(=O)c4ccccc4)c4ccccc4)C(C)=C1C3(C)C)[C@]1(OC(C)=O)CO[C@@H]1C[C@@H]2O [PACLITAXEL] | – | 6.01% | 9.81% | – | – | – | – | – | 70.48% | 13.7%
CCOC(=O)c1nnnn1[C@@H]1c2cc3c(cc2[C@@H](c2cc(OC)c(O)c(OC)c2)[C@H]2C(=O)OC[C@@H]21)OCO3 | Active | 6% | 7.3% | 12.4 µM | 29.1 µM | 2.68% | 25.9 µM | 6.49 µM | 74.86% | 11.83%
COc1cccc2c1C(=O)c1c(O)c3c(c(O)c1C2=O)C[C@@](O)(C(=O)CO)C[C@@H]3O[C@H]1C[C@H](N)[C@H](O)[C@H](C)O1 [DOXORUBICIN] | – | – | – | 12.3 µM | 10.8 µM | – | 7.36 µM | 6.13 µM | – | –
CCOC(=O)c1nnnn1[C@@H]1c2cc3c(cc2[C@@H](c2cc(OC)c(OC)c(OC)c2)[C@H]2C(=O)OC[C@@H]21)OCO3 | – | 5.52% | 12.44% | 7.47 µM | 4.76 µM | 99.2% | 3.61 µM | 2.4 µM | 65.6% | 16.44%
